This is an account of results in patent US8242134B2, “Isoquinolinone derivatives as NK3 antagonists” (H. Lundbeck A/S, priority 2008, dated 2012).

The conditions of test [1]: cited from earlier work.
Test [2] deals with T1, human NK3 receptor (Homo sapiens, UniProt P29371).
T1 construct: expressed in transfected cells
T1 sequence (P29371 1-465): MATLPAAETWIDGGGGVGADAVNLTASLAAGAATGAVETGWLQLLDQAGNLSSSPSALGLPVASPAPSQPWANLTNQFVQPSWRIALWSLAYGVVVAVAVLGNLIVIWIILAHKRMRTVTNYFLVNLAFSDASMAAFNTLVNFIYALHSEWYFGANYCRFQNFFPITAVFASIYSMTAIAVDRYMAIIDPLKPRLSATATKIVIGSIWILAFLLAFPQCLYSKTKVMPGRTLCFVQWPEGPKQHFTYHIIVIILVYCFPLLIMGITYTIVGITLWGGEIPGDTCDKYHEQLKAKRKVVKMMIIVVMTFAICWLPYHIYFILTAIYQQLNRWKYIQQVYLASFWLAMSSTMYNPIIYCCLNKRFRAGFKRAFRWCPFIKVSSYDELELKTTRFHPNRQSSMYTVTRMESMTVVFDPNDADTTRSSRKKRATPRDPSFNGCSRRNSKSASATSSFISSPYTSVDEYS
Nature of the test: NK3 receptor binding assay (SPA competition binding, 125I-NKB). Conditions: read-out: Affinity (Ki/nM). On the procedure:
Membrane preparation: BHK cells stably expressing the human NK3 receptor were seeded in harvesting plates in Dulbeccos MEM containing GlutaMax (862 mg/l), 1 mM sodium pyruvate, 10% fetal calf serum, 1% Pen/Strep, 1 mg/ml G418 and were grown at 34° C. in a humidified atmosphere containing 10% CO2. To increase receptor expression, 10 μM trichotatin A was added to the media 24 hours before harvest of the cells at a confluency of app 90%. Prior to the harvesting, the cells were washed twice with PBS without Mg^2+ og Ca^2+ and subsequently scrapped of in 10 ml PBS pr harvesting plate. The cells suspension were centrifuged at 1500×G in three minutes before resuspension in 15 mM Tris-HCl pH 7.5 buffer containing 2 mM MgCl2; 0.3 mM EDTA and 1 mM EGTA (buffer A). The cell suspension was homogenised and subsequently centrifuged at 40000×G in 30 minutes. The membrane-pellet was resuspended in buffer A containing 250 mM sucrose, aliquoted and stored at −80° C.
Affinity assay description: The assay was performed as a SPA-based competition-binding assay in a 50 mM Tris pH 7.4 assay buffer containing 120 mM NaCl, 3 mM MnCl2, 40 μg/ml bacitracin, 2 μg/ml Chymostatin, 1 μg/ml Phosphoramidon and 4 μg/ml Leupeptin. […] The assay plate was subsequently under agitation incubated for 90 min at RT.

Consider `CC[C@H](NC(=O)c1c(O)c(-c2ccccc2)nc2ccccc12)c1ccccc1` [Talnetant, talnetant], for which the “effect on cognitive behaviour of schizophrenics in clinical trials” value in test [1] (in vivo) is reported as “ameliorate the cognitive behaviour of schizophrenics”.
Turning to `CC(=O)N(C)C1(c2ccccc2)CCN(CCC[C@]2(c3ccc(Cl)c(Cl)c3)CCCN(C(=O)c3ccccc3)C2)CC1` [Osanetant, osanetant], the “effect in clinical trials versus placebo” value in test [1] (in particular on positive symptoms of psychosis) is given as “superior to placebo”.
`Cc1c(C(=O)N[C@H](c2cccc(F)c2)C2CCC2)c2cccc(F)c2c(=O)n1[C@H]1CCOC1` [Example 4r, 8-Fluoro-3-methyl-1-oxo-2-(S)-tetrahydro-furan-3-yl-1,2-dihydro-isoquinoline-4-carboxylic acid [(S)-cyclobutyl-(3-fluoro-phenyl)-methyl]-amide]: the Ki in test [2] came to 170 nM.
Still for that read-out and setting: the same measure for `Cc1c(C(=O)N[C@H](c2cccc(F)c2)C2CC2)c2cccc(F)c2c(=O)n1[C@@H]1CCNC1` [Example 5g, 8-Fluoro-3-methyl-1-oxo-2-(R)-1-pyrrolidin-3-yl-1,2-dihydro-isoquinoline-4-carboxylic acid [(S)-cyclopropyl-(3-fluoro-phenyl)-methyl]-amide]: 180 nM.
